Data reported in publication PMC10886839, “Electrochemical DNA Cleavage Sensing for EcoRV Activity and Inhibition with an ERGO Electrode” (Biosensors, 2024).

Target: T1, EcoRV (Escherichia coli, UniProt P04390)
T1 construct: gene ecoRVR; restriction endonuclease, dosed in U/mL; homodimer (known biology)
T1 sequence (P04390 2-245): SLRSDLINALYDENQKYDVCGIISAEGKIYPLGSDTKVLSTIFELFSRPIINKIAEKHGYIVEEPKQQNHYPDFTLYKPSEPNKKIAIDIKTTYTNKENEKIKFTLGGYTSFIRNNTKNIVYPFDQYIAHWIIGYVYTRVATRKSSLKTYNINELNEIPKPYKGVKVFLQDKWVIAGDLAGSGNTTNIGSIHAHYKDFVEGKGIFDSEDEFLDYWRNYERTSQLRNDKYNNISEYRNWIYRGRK
Experiment: electrochemical DNA cleavage assay (DPV of methylene blue-labelled DNA on ERGO electrode)
Assay type: biochemical

Structure (SMILES): O=C(O)C1=CC(=C(c2ccc(O)c(C(=O)O)c2)c2ccc(O)c(C(=O)O)c2)C=CC1=O [ATA, aurintricarboxylic acid]
- IC50: 96 nM
